Laboratory results from patent US12084437B2, “Halo-substituted piperidines as orexin receptor modulators” (AstraZeneca AB, priority 2016, dated 2024).
Values joined by “and” are separate entries in the source; they are usually repeats but may differ in a detail not shown here. Identical values can stand only once.

Experiments:
OX2 = molecular target: T1, OX2 (Homo sapiens, UniProt O43614); experiment: Orexin receptor cell-based functional assay, [Ca2+]i by FLIPR, CHO-OX2 cells; conditions: FLIPR calcium, antagonism of EC90 of [OX]
T1 construct: expressed in transfected cells; host or cells: CHO (CHO-OX2)
T1 sequence (O43614 1-444): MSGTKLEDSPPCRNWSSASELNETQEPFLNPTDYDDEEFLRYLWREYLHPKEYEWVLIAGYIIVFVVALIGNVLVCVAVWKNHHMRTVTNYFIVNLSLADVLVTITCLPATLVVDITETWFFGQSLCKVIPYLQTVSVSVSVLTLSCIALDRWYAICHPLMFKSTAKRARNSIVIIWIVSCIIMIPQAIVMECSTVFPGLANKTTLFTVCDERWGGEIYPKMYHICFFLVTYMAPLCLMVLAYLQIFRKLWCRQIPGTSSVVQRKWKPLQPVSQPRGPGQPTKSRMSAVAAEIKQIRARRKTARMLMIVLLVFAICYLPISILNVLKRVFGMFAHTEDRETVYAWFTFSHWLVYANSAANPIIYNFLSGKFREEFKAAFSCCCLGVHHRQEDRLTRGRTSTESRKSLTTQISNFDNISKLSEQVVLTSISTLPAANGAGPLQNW
Procedure: (§1) Measurement of [Ca^2+]i using a FLIPR: CHO-OX1 or CHO-OX2 cells were seeded into black-walled clear-base 384-well plates (Corning, catalog #3712) at a density of 20,000 cells per well in F12-K medium supplemented with 10% FBS and then incubated in a 5% CO2, 37° C. incubator overnight to reach 90% confluency. The cells were incubated with equal volume of calcium6 loading buffer (Molecular Devices, Inc.) containing 2.5 mM probenecid at 37° C. for 2 h, followed by test compounds (dose-range 0.1 nM-10 μM) for another 30 min. The plates were then placed into a FLIPR (Molecular Devices, Inc.) to monitor fluorescence (λ excitation 488 nm, λ emission 540 nm) before and after the addition of EC90 of [OX]. Results for exemplary compounds of Formulae (I), (Ia), (Ib), (II), (IIa), (III), (IIIa), (IV), (IVa), (V), or (Va) are shown in Table 3.

OX1 = molecular target: T2, OX1 (Homo sapiens, UniProt O43613); experiment: Orexin receptor cell-based functional assay, [Ca2+]i by FLIPR, CHO-OX1 cells; conditions: FLIPR calcium, antagonism of EC90 of [OX], read-out: OXI, IC50
T2 construct: expressed in transfected cells; host or cells: CHO (CHO-OX1)
T2 sequence (O43613 1-425): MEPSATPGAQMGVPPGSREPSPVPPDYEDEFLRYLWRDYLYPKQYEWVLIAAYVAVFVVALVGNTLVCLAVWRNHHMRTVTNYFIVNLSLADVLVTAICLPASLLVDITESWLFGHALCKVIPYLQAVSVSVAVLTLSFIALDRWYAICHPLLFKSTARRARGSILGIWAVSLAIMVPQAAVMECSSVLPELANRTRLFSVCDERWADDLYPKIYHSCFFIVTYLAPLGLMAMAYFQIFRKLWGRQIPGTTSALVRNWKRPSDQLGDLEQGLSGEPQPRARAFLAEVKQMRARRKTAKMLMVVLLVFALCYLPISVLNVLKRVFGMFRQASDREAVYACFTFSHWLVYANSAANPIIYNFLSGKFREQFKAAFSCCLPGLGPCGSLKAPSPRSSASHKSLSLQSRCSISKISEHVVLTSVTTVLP
Procedure: as §1, with “[OX].” for “[OX]. Results for exemplary compounds of Formulae (I), (Ia), (Ib), (II), (IIa), (III), (IIIa), (IV), (IVa), (V), or (Va) are shown in Table 3.”

SMILES | IC50 (OX2) [nM] | IC50 (OX1)
Cc1ccc(-c2cn(C)nc2C(=O)N2CC(F)(F)C[C@@H](C)[C@H]2CNc2ncc(C(F)(F)F)cn2)cn1 [Compound 89] | > 5000 | 23 nM
C[C@@H]1CC(F)(F)CN(C(=O)c2nn(C)cc2-c2cccnc2)[C@@H]1CNc1ncc(C(F)(F)F)cn1 [Compound 90] | > 5000 | 206 nM
Cc1cc(C(=O)N2CC(F)(F)C[C@@H](C)[C@H]2CNc2ncc(C(F)(F)F)cn2)c(-c2ccccn2)s1 [Compound 91] | > 5000 | 7 nM
Cc1cc(C(=O)N2CC(F)(F)C[C@@H](C)[C@H]2CNc2ncc(Cl)cn2)c(-c2ccccn2)s1 [Compound 92] | > 5000 | 24 nM
C[C@@H]1CC(F)(F)CN(C(=O)c2cn(C)nc2-c2ccccn2)[C@@H]1CNc1ncc(C(F)(F)F)cn1 [Compound 93] | > 5000 | 156 nM
C[C@@H]1CC(F)(F)CN(C(=O)c2cnn(C)c2-c2ccccn2)[C@@H]1CNc1ncc(C(F)(F)F)cn1 [Compound 95] | > 5000 | > 1000 nM
C[C@@H]1CC(F)(F)CN(C(=O)c2cnn(C)c2-c2ccccn2)[C@@H]1CNc1ncc(Cl)cn1 [Compound 96] | > 5000 | > 1000 nM
C[C@@H]1CC(F)(F)CN(C(=O)c2nn(C)cc2-c2ncccn2)[C@@H]1CNc1ncc(C(F)(F)F)cn1 [Compound 97, ((2S,3R)-5,5-difluoro-3-methyl-2-(((5-(trifluoromethyl)pyrimidin-2-yl)amino)methyl)piperidin-1-yl)(1-methyl-4-(pyrimidin-2-yl)-1H-pyrazol-3-yl)methanone] | > 5000 | 12 nM
C[C@@H]1CC(F)(F)CN(C(=O)c2nn(C)cc2-c2ccccc2)[C@@H]1CNc1cnc(C(F)(F)F)cn1 [Compound 120, ((2S,3R)-5,5-difluoro-3-methyl-2-(((5-(trifluoromethyl)pyrazin-2-yl)amino)methyl)piperidin-1-yl)(1-methyl-4-phenyl-1H-pyrazol-3-yl)methanone] | > 5000 | 2 nM
C[C@@H]1CC(F)(F)CN(C(=O)c2nn(C)cc2-c2ccc(F)cc2)[C@@H]1CNc1cnc(C(F)(F)F)cn1 [Compound 121] | > 5000 | 5 nM
Cc1ccc(-c2cn(C)nc2C(=O)N2CC(F)(F)C[C@@H](C)[C@H]2CNc2cnc(C(F)(F)F)cn2)cc1 [Compound 122] | > 5000 | 5 nM
Cc1cccc(-c2cn(C)nc2C(=O)N2CC(F)(F)C[C@@H](C)[C@H]2CNc2cnc(C(F)(F)F)cn2)c1 [Compound 123] | > 5000 | 2 nM
COc1cccc(-c2cn(C)nc2C(=O)N2CC(F)(F)C[C@@H](C)[C@H]2CNc2cnc(C(F)(F)F)cn2)c1 [Compound 124] | 1000 | 4 nM
COc1ccc(-c2cn(C)nc2C(=O)N2CC(F)(F)C[C@@H](C)[C@H]2CNc2cnc(C(F)(F)F)cn2)cc1 [Compound 125] | > 5000 | 4 nM and 2 nM
C[C@@H]1CC(F)(F)CN(C(=O)c2nn(C)cc2-c2ccccn2)[C@@H]1CNc1cnc(C(F)(F)F)cn1 [Compound 130] | > 5000 | 6 nM
Cc1cccc(-c2cn(C)nc2C(=O)N2CC(F)(F)C[C@@H](C)[C@H]2CNc2cnc(C(F)(F)F)cn2)n1 [Compound 132] | > 5000 | 7 nM
Cc1ccc(-c2cn(C)nc2C(=O)N2CC(F)(F)C[C@@H](C)[C@H]2CNc2cnc(C(F)(F)F)cn2)nc1 [Compound 133] | > 5000 | 11 nM
Cc1ccnc(-c2cn(C)nc2C(=O)N2CC(F)(F)C[C@@H](C)[C@H]2CNc2cnc(C(F)(F)F)cn2)c1 [Compound 134] | > 5000 | 4 nM
COc1ccc(-c2cn(C)nc2C(=O)N2CC(F)(F)C[C@@H](C)[C@H]2CNc2cnc(C(F)(F)F)cn2)nc1 [Compound 135] | > 5000 | 19 nM

SMILES | IC50 (OX2) [nM] | IC50 (OX1)
COc1cccc(-c2cn(C)nc2C(=O)N2CC(F)(F)C[C@@H](C)[C@H]2CNc2cnc(C(F)(F)F)cn2)n1 [Compound 136] | > 5000 | 40 nM
Cc1ccc(-c2sc(C)nc2C(=O)N2CC(F)(F)C[C@@H](C)[C@H]2CNc2cnc(C(F)(F)F)cn2)cc1 [Compound 138] | > 5000 | 6 nM
Cc1cccc(-c2sc(C)nc2C(=O)N2CC(F)(F)C[C@@H](C)[C@H]2CNc2cnc(C(F)(F)F)cn2)c1 [Compound 139] | > 5000 | 10 nM
COc1cccc(-c2sc(C)nc2C(=O)N2CC(F)(F)C[C@@H](C)[C@H]2CNc2cnc(C(F)(F)F)cn2)c1 [Compound 142] | > 5000 | 4 nM
Cc1ccnc(-c2sc(C)nc2C(=O)N2CC(F)(F)C[C@@H](C)[C@H]2CNc2cnc(C(F)(F)F)cn2)c1 [Compound 147] | > 5000 | 5 nM
Cc1ccc(-c2sc(C)nc2C(=O)N2CC(F)(F)C[C@@H](C)[C@H]2CNc2cnc(C(F)(F)F)cn2)nc1 [Compound 148] | > 5000 | 6 nM
COc1cccc(-c2sc(C)nc2C(=O)N2CC(F)(F)C[C@@H](C)[C@H]2CNc2cnc(C(F)(F)F)cn2)n1 [Compound 151] | > 5000 | 11 nM
Cc1ccc(-n2nccn2)c(C(=O)N2CC(F)(F)C[C@@H](C)[C@H]2CNc2cnc(C(F)(F)F)cn2)n1 [Compound 153] | > 5000 | 27 nM
C[C@@H]1CC(F)(F)CN(C(=O)c2cc(Cl)ccc2-n2nccn2)[C@@H]1CNc1cnc(C(F)(F)F)cn1 [Compound 154] | > 5000 | 12 nM
C[C@@H]1CC(F)(F)CN(C(=O)c2nn(C)cc2-c2cccnc2)[C@@H]1CNc1cnc(C(F)(F)F)cn1 [Compound 155] | > 5000 | 38 nM
Cc1nc(C(=O)N2CC(F)(F)C[C@@H](C)[C@H]2CNc2cnc(C(F)(F)F)cn2)c(-c2cccnc2)o1 [Compound 156] | > 5000 | > 1000 nM
Cc1nc(C(=O)N2CC(F)(F)C[C@@H](C)[C@H]2CNc2cnc(C(F)(F)F)cn2)c(-c2ccccc2)o1 [Compound 157] | > 5000 | 186 nM
C[C@@H]1CC(F)(F)CN(C(=O)c2cn(C)nc2-c2ccccn2)[C@@H]1CNc1cnc(C(F)(F)F)cn1 [Compound 158] | > 5000 | 62 nM
C[C@@H]1CC(F)(F)CN(C(=O)c2cc(Cl)ccc2-c2nnn(C)n2)[C@@H]1CNc1cnc(C(F)(F)F)cn1 [Compound 161] | > 5000 | 9 nM
C[C@@H]1CC(F)(F)CN(C(=O)c2nn(C)cc2-c2ccccn2)[C@@H]1CNc1ccc(C(F)(F)F)cn1 [Compound 167] | > 5000 | 5 nM
C[C@@H]1CC(F)(F)CN(C(=O)c2nn(C)cc2-c2ccc(F)cc2)[C@@H]1CNc1ccc(C(F)(F)F)cn1 [Compound 169] | > 5000 | 2 nM
Cc1ccc(-n2nccn2)c(C(=O)N2CC(F)(F)C[C@@H](C)[C@H]2CNc2ccc(C(F)(F)F)cn2)n1 [Compound 174] | > 5000 | 4 nM
Cc1ccc(-c2cn(C)nc2C(=O)N2CC(F)(F)C[C@@H](C)[C@H]2CNc2ccc(C(F)(F)F)cn2)cc1 [Compound 175] | 4140 | 4 nM
COc1ccc(-c2cn(C)nc2C(=O)N2CC(F)(F)C[C@@H](C)[C@H]2CNc2ccc(C(F)(F)F)cn2)cc1 [Compound 177] | 170 | 6 nM
